The values that follow are results of earlier work, collected in US20060078922A1, “Novel purified polypeptides from haemophilus influenzae” (Affinium Pharmaceuticals, Inc., priority 2003, published 2006).

This series concerns the target phosphopantetheine adenyltransferase (Escherichia coli, UniProt P0A6I6). The note with it: qualitative statement, species not given.

phosphopantetheine adenyltransferase, sequence (P0A6I6 whole entry): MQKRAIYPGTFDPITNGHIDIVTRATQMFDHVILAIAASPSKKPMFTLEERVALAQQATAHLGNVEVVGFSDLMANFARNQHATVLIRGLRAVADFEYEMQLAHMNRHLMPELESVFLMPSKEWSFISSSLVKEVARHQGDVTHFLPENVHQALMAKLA

Regarding `CC(C)(COP(=O)(O)OP(=O)(O)OC[C@H]1O[C@@H](n2cnc3c(N)ncnc32)[C@H](O)[C@@H]1OP(=O)(O)O)[C@@H](O)C(=O)NCCC(=O)NCCS` [Coenzyme-A], the “inhibition of phosphopantetheine adenyltransferase” value is given as “known to inhibit”.
